Measurements taken from patent US11311592B2, “Bauhinia extract and uses thereof” (Academia Sinica, priority 2015, dated 2022).

System: p62-RL-HEK cells
Assay: Cell-based p62-Renilla luciferase reporter assay of autophagy activity
Set-up: species or system Human
Conditions: positive controls: 3-MA 5 μM, rapamycin 200 nM; 24 hr at 37° C.
Protocol: FIG. 3. Treatments with BVEE induces autophagy. A. GFP-LC3-HEK cells were treated with BVEE (50 μg/ml) at 37° C. for 24 h. An autophagy inducer, rapamycin, and an autophagy inhibitor, 3-MA, were included as controls. Clarified lysates containing equal amounts of proteins were resolved by SDS-PAGE and analyzed by Western blotting with anti-p62 (top panel), anti-LC3 (middle panel), and anti-GAPDH (bottom panel) antibodies. B. A stable cell line p62-RL-HEK that overexpresses Renilla luciferase-tagged p62 was treated with BVEE (50 μg/ml) at 37° C. for 24 h. Additional treatments with either rapamycin or 3-MA were included as controls. Renilla luciferase signal was determined by the addition of coelenterazine at equal volume to a final concentration of 5 μM. Luminescence emitted by DMSO-treated cells (Control) was referred to as 100% relative Renilla luciferase signal;
FIG. 12. The autophagy-inducing potency of extracts derived from B. variegate (BV) by using different solvents. The p62-RL-HEK cells were treated with or without B. variegate extract ([…]) at 37° C. for 24 h. Additional treatments with either rapamycin (RAP) or 3-MA were included as references. Renilla luciferase (Luc) activity was determined by the addition of coelenterazine to a final concentration of […]. Luminescence emitted by DMSO-treated cells (Control) was referred to as 100% relative Renilla luciferase signal. […]

Structure (SMILES): Cn1cnc(N)c2ncnc1-2 [3-MA, 3-methyladenine]
- luciferase signal of p62-RL-HEK cells: significant increase
